For twelve compounds, IC50 results are on record in patent publication US20210347727A1 (BLADE THERAPEUTICS, INC., priority 2017, published 2021).

In assay [1] the target is T1, Human Calpain 1/NS1 (Homo sapiens, UniProt P07384).
T1 sequence (P07384 1-714): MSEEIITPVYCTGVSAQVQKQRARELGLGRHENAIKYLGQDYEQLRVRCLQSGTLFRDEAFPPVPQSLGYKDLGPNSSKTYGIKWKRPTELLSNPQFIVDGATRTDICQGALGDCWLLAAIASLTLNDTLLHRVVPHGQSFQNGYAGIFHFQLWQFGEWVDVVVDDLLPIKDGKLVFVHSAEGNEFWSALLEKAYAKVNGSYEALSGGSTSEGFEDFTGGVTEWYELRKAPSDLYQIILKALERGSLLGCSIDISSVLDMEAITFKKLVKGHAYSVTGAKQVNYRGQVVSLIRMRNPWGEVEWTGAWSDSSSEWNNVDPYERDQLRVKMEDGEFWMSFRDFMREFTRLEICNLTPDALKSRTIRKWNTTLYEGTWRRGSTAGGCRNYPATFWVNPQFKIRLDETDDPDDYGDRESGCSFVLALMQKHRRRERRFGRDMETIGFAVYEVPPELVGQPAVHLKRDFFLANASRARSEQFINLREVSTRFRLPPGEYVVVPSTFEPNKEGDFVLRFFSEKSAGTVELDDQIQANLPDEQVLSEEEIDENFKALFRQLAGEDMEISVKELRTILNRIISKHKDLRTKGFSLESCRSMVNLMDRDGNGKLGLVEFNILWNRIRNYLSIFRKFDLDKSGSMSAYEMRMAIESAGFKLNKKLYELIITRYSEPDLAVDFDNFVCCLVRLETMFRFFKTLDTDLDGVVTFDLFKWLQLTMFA
T1 sequence (P04632 1-268 partner): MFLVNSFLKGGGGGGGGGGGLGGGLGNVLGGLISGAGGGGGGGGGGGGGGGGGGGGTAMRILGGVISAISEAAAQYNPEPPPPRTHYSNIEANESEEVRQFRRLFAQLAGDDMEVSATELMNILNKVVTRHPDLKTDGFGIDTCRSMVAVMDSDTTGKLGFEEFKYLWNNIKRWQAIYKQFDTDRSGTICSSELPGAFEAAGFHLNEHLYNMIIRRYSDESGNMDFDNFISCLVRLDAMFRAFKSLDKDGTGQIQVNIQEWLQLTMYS
Kind of assay: Biochemical inhibition of calpain 1, continuous fluorescence (FRET substrate) assay. The following applies: mean; read-out: Human Calpain 1/NS1 IC50 (nM)_MEAN. Here is the method: (§1) Calpain 1, 2, and 9 activity and inhibition thereof are assessed by means of a continuous fluorescence assay. The SensoLyte 520 Calpain substrate (Anaspec Inc) is optimized for detecting calpain activity. This substrate contains a novel internally quenched 5-FAM/QXL™ 520 FRET pair. Calpains 1, 2, and 9 cleave the FRET substrate into two separate fragments resulting in an increase of 5-FAM fluorescence that is proportional to calpain activity.
(§2) Assays are typically setup in black 384-well plates using automated liquid handling as follows. Calpain assay base buffer typically contains 50 mM Tris, pH 7.5, 100 mM NaCl and 1 mM DTT. Inhibitors are serially diluted in DMSO and used to setup 2× mixtures with calpains in the aforementioned buffer. After incubation at ambient temperature (25 C), the reaction is initiated by adding a 2× mix of the fluorescent peptide substrate and CaCl2 (required for in-situ calpain activation) in the same buffer. Reaction progress curve data are typically collected for 10 min using excitation/emission wavelengths of 490 nm/520 nm on SpectraMax i3x or the FLIPR-Tetra plate readers (Molecular Devices Inc). Reaction rates were calculated from progress curve slopes typically over 1-5 min. Dose response curves (rate vs. log inhibitor concentration) were typically fit to a 4-parameter logistic function to extract IC50 values.

Assay [2] deals with T2, Human Calpain 2/NS1 (Homo sapiens, UniProt P17655).
T2 sequence (P17655 1-700): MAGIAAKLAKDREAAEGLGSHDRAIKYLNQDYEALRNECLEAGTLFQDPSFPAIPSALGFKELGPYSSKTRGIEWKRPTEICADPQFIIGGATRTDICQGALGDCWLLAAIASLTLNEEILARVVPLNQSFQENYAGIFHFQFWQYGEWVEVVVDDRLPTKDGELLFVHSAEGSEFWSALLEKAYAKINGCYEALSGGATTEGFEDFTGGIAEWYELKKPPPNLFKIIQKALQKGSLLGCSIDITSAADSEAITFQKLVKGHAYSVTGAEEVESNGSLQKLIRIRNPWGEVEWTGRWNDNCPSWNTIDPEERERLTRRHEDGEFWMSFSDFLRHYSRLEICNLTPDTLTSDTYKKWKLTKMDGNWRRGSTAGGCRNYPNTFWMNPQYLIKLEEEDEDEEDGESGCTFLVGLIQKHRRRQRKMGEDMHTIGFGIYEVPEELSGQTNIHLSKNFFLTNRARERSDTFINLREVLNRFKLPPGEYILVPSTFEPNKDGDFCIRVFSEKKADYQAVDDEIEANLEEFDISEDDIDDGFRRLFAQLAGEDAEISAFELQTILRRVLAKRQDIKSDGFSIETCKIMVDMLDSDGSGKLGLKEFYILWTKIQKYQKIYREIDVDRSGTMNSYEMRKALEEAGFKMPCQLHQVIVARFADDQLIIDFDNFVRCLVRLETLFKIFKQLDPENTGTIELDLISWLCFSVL
T2 sequence (P04632 1-268 partner): T1 sequence (P04632 1-268 partner)
Kind of assay: Biochemical inhibition of calpain 2, continuous fluorescence (FRET substrate) assay. The following applies: mean; read-out: Human Calpain 2/NS1 1C50 [sic] (nM)_MEAN. Here is the method: as §1, §2

In assay [3] the target is T3, Human Calpain 9/NS1 (Homo sapiens, UniProt O14815).
T3 sequence (O14815 1-690): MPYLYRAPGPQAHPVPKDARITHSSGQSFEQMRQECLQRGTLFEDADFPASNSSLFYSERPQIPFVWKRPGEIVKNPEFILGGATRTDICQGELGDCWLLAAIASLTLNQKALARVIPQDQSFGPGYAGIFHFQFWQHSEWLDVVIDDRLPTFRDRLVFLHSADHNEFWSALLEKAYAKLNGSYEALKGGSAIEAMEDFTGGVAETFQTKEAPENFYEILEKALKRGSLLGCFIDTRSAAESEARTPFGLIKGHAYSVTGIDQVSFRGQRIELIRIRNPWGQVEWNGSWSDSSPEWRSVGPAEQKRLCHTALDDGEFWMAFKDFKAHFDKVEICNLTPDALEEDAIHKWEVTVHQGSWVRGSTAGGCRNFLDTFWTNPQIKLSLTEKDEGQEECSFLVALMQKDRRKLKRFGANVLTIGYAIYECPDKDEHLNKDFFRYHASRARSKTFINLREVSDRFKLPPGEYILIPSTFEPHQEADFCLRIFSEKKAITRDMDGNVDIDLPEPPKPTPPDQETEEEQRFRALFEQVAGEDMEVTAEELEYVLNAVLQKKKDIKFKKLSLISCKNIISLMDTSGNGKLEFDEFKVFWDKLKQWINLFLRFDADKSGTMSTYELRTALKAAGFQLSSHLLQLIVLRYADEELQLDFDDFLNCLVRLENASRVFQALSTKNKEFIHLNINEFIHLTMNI
T3 sequence (P04632 1-268 partner): T1 sequence (P04632 1-268 partner)
The assay is described as follows: Biochemical inhibition of calpain 9, continuous fluorescence (FRET substrate) assay. The following applies: mean; read-out: Human Calpain 9/NS1 IC50 (nM)_MEAN. Here is the method: as §1, §2

The subject of assay [4] is calpain activity in SH-SY5Y cells (Spectrin). Kind of assay: SH-SY5Y Spectrin cellular calpain inhibition. Type of assay: cell-based.
For assay [5], the system named is calpain activity in SH-SY5Y cells. The assay is described as follows: SH-SY5Y cellular calpain activity, Suc-LLVY-AMC fluorescence assay. It is filed as cell-based. The following applies: Suc-LLVY-AMC substrate. On the procedure:
Calpain activity in SH-SY5Y cells and inhibition thereof were assessed by means of a homogeneous, fluorescence assay that uses the cell-permeable and pro-fluorescent calpain substrate Suc-LLVY-AMC (Sigma-Aldrich Inc). Upon intracellular calpain cleavage of Suc-LLVY-AMC, fluorescent amino-methyl-coumarin (AMC) is released into the media resulting in a continuous increase in fluorescence signal that is proportional to intra-cellular calpain activity.
Assays were typically setup by seeding SH-SY5Y cells in black 384-well plates at 40 k/per well in RPMI-1640 containing 1% serum followed by 37 C overnight incubation. Next morning, cells were pre-incubated for 30 min with serially diluted compounds followed by addition of 100 uM of Suc-LLVY-AMC substrate. The continuous increase in AMC fluorescence is monitored using a FLIPR, Tetra plate reader (Molecular Devices Inc) and slopes measured to report calpain activity. Dose response curves (slopes vs. log inhibitor concentration) were typically fit to a 4-parameter logistic function to extract IC50 values.

With `Cn1c2ccccc2c2cccc(C(=O)NC(Cc3ccccc3)C(=O)C(N)=O)c21` (centres unmarked) [Compound 12], the IC50 in assay [1] was under 3000 nM; in assay [2] it was under 3000 nM; in assay [3], under 3000 nM; in assay [4], over 25 µM; in assay [5], under 10 µM.

Turning to `NC(=O)C(=O)C(Cc1ccccc1)NC(=O)c1cccc2c1oc1ccccc12` (centres unmarked) [Compound 9, N-(4-AMINO-3,4-DIOXO-1-PHENYLBUTAN-2-YL)DIBENZO[b,d]FURAN-4-CARBOXAMIDE], the IC50 is under 3000 nM in assay [1]; under 3000 nM in assay [2]; under 3000 nM in assay [3]; over 25 µM in assay [4]; over 25 µM in assay [5].

Turning to `Cc1ccc(Cl)c(C(=O)N[C@@H](Cc2ccccc2)C(=O)C(N)=O)c1F` [Compound 31, (S)—N-(4-AMINO-3,4-DIOXO-1-PHENYLBUTAN-2-YL)-6-CHLORO-2-FLUORO-3-METHYLBENZAMIDE], the IC50 in assay [1] is under 3000 nM; in assay [2] it was under 3000 nM; in assay [3] it was under 3000 nM; in assay [4] it was under 10 µM; in assay [5], under 10 µM.

With `Cc1ccc(F)c(C(=O)NC(C=O)Cc2ccccc2)c1Cl` (centres unmarked) [Compound 42, 2-CHLORO-6-FLUORO-3-METHYL-N-(1-OXO-3-PHENYLPROPAN-2-YL)BENZAMIDE], the IC50 in assay [1] was under 3000 nM; in assay [2], under 3000 nM; in assay [3] it was under 3000 nM; in assay [4] it was 10 to 25 µM; in assay [5] it was under 10 µM.

Turning to `NC(=O)C(=O)[C@H](Cc1ccccc1)NC(=O)c1c(C(F)(F)F)ccc(Cl)c1F` [Compound 32, (S)—N-(4-AMINO-3,4-DIOXO-1-PHENYLBUTAN-2-YL)-3-CHLORO-2-FLUORO-6-(TRIFLUOROMETHYL)BENZAMIDE], the IC50 in assay [1] is under 3000 nM; in assay [2], under 3000 nM; in assay [3], under 3000 nM; in assay [4] it was under 10 µM; in assay [5], under 10 µM.

Turning to `O=CC(Cc1ccccc1)NC(=O)c1c(Cl)ccc2ccccc12` (centres unmarked) [Compound 44, 2-CHLORO-N-(1-OXO-3-PHENYLPROPAN-2-YL)-1-NAPHTHAMIDE], the IC50 is under 3000 nM in assay [1]; under 3000 nM in assay [2]; under 3000 nM in assay [3]; under 10 µM in assay [4]; under 10 µM in assay [5].

In the case of `O=CC(Cc1ccccc1)NC(=O)c1c(F)cccc1F` (centres unmarked) [Compound 40, 2,6-DIFLUDRO-N-(1-OXO-3-PHENYLPROPAN-2-YL)BENZAMIDE], the IC50 in assay [1] is under 3000 nM; in assay [2], under 3000 nM; in assay [3], under 3000 nM; in assay [4] it was 10 to 25 µM; in assay [5] it was over 25 µM.

On to `NC(=O)C(=O)[C@H](Cc1ccccc1)NC(=O)c1c(F)cccc1C(F)(F)F` [Compound 16, (S)—N-(4-AMINO-3,4-DIOXO-1-PHENYLBUTAIN-2-YL)-2-FLUORO-6-(TRIFLUOROMETHYL)BENZAMIDE], for which the IC50 is under 3000 nM in assay [1]; under 3000 nM in assay [2]; under 3000 nM in assay [3]; 10 to 25 µM in assay [4]; over 25 µM in assay [5].

Turning to `NC(=O)C(=O)C(Cc1ccccc1)NC(=O)c1ccc2c(c1)OCO2` (centres unmarked) [Compound 24, N-(4-AMINO-3,4-DIOXO-1-PHENYLBUTAN-2-YL)BENZO[d][1,3]DIOXOLE-5-CARBOXAMIDE], the IC50 was 3000 to 10000 nM in assay [1], under 3000 nM in assay [2], under 3000 nM in assay [3] and over 25 µM in assay [4].

Regarding `NC(=O)C(=O)C(Cc1ccccc1)NC(=O)C1c2ccccc2Oc2ccccc21` (centres unmarked) [Compound 5, N-(4-AMINO-3,4-DIOXO-1-PHENYLBUTAN-2-YL)-9H-XANTHENE-9-CARBOXAMIDE], the IC50 is under 3000 nM in assay [1], under 3000 nM in assay [2], under 3000 nM in assay [3] and over 25 µM in assay [4].

For the compound `O=CC(Cc1ccccc1)NC(=O)c1c(Cl)cccc1Br` (centres unmarked) [Compound 41, 2-BROMO-6-CHLORO-N-(1-OXO-3-PHENYLPROPAN-2-YL)BENZAMIDE], the IC50 in assay [1] was 3000 to 10000 nM; in assay [2], under 3000 nM; in assay [3] it was under 3000 nM; in assay [4], 10 to 25 µM.

As for `NC(=O)C(=O)C(Cc1ccccc1)NC(=O)N1c2ccccc2Oc2ccccc21` (centres unmarked) [Compound 6, N-(4-AMINO-3,4-DIOXO-1-PHENYLBUTAN-2-YL)-10H-PHENOXAZINE-10-CARBOXAMIDE], the IC50 in assay [1] was under 3000 nM; in assay [2], under 3000 nM; in assay [3] it was over 10000 nM; in assay [5], over 25 µM.
